This is an account of results in patent US20260337176A1, “AUTOPHAGY REGULATOR AND USE THEREOF” (SHENZHEN INSTITUTES OF ADVANCED TECHNOLOGY, CHINESE ACADEMY …, priority 2023, published 2026).

One series concerns HeLa cells. Description: Verification of how compound enters cells (37 °C vs 4 °C). Format: cell-based. Conditions: 2 μM, 30 min, complete medium; for way of entering cells: 37 °C vs 4 °C. The method, then:
(§1) Cancer cells HeLa and 4T1 and normal cells HEK293 were cultured using a complete medium (DMEM medium containing 10% fetal bovine serum and 1% penicillin/streptomycin) in a saturated-humidity incubator at 37 °C and 5% CO2, and passaged once every 2 to 3 days.
(§2) When the cells grew to the logarithmic phase, they were transferred to confocal dishes or 96-well plates: Cells fully grown in a T25 cell culture flask were first washed with PBS, and then digested with 1 mL of trypsin for 1 to 2 minutes (0.25% trypsin for HeLa and 4T1, and 0.025% trypsin for HEK293). After removal of trypsin, fresh medium was added, and the cells were pipetted uniformly and counted, whose density was controlled by the amount of medium added. (1) The cells were inoculated into a confocal glass-bottom culture dish, and was cultured in a 5% CO2 incubator.When the cells grew to a coverage of ~70% they were used for confocal imaging experiments. (2) The cells were inoculated into a low-attachment U-bottom 96-well plate, and when the diameter of the cell spheroids reached ~800 μm, the cell spheroids were used for antitumor evaluation.
After two groups of HeLa cells grown on confocal glass-bottom culture dishes prepared in Test example 1 were washed with PBS, one group was incubated at 37 °C in the dark for 30 min in complete medium with 2 μM of the compound synthesized in Example 1, and the other group was incubated at 4 °C for the same period in complete medium with 2 μM of compound synthesized in Example 1. After PBS washing, the incubated cells were placed in DMEM, and red fluorescence distribution in cells from the two groups was observed and recorded using a laser scanning confocal microscope (EX561 nm, EM600-700 nm).
After two groups of HeLa cells grown on confocal glass-bottom culture dishes prepared in Test example 1 were washed with PBS, one group was incubated in complete medium with 2 μM of (E)-4-(2-(5-methoxy-1H-indol-3-yl)vinyl)-1-n-octylquinolinium iodide in the dark at 37 °C for 30 min, and the other group was incubated in complete medium solution with 2 μM (E)-4-(2-(5-methoxy-1H-indol-3-yl)vinyl)-1-n-octylquinolinium iodide in the dark at 4 °C for the same period. After PBS washing, the cells were placed in DMEM, and red fluorescence in cells from the two groups was observed and recorded using a laser scanning confocal microscope (EX561 nm, EM600-700 nm).

Series [1] deals with cancer cells HeLa and 4T1 and normal cells HEK293. Description: Selectivity for tumor cells (red fluorescence intensity in cancer vs normal cells). Type of series: cell-based. Conditions: 4T1 vs HEK293, 1 μM, 30 min; for fluorescence intensity, cancer cells vs normal cells, complete medium / selectivity for cancer cells: complete medium (serum-containing). Here is the method: as §1, §2
After three groups of cancer cells HeLa and 4T1 and normal cells HEK293 individually grown on confocal glass-bottom culture dishes prepared in Test example 1 were washed with PBS, one group was incubated in complete medium (serum-containing) with 1 μM of the compound synthesized in Example 1 in the dark for 30 min, and the second group was incubated in complete medium with 1 μM of (E)-4-(2-(5-methoxy-1H-indol-3-yl)vinyl)-1-n-octylquinolinium iodide in the dark for 30 min, and the third group was incubated in DMEM (serum-free)with 1 μM of the compound synthesized in Example 1 in the dark for 30 min. After PBS washing, all the cells were placed in DMEM, and differences in red fluorescence intensity from the three groups of tumor cells and normal cells were observed and recorded under a laser scanning confocal microscope (EX561 nm, EM600-700 nm).

The test system of series [2] is HeLa cells (mitochondria and lysosomes). Description: Localization observation in HeLa cells (colocalization with MitoTracker Green and LysoBrite NIR). Conditions: 2 μM, 30 min, confocal colocalization. Type of series: cell-based. Here is the method:
as §1
as §2, with “evaluation. […]” for “evaluation.”

The test system of series [3] is HeLa cells (mitochondrial membrane potential). Description: Changes in mitochondrial membrane potential of HeLa cells (rhodamine 123). Type of series: cell-based. The note with it: 10 μM, 30 min, vs DMSO blank control. Here is the method:
as §1
as §2, with “(2) The cells were inoculated into a low-attachment U-bottom 96-well plate, and when the diameter of the cell spheroids reached ~800 μm, the cell spheroids were used for antitumor evaluation.” left out
Two groups of HeLa cells grown on confocal glass-bottom culture dishes prepared in Test example 1 were both incubated with 5 μM rhodamine 123 in darkness in a CO2 incubator for 30 min and then washed with PBS. […] After PBS washing, the cells were observed under a laser scanning confocal microscope, and the changes of the fluorescence brightness from rhodamine 123 in the two groups of cells were recorded.

The test system of series [4] is HeLa cells (lysosomal pH). Description: Changes in lysosomal pH of HeLa cells (LysoSensor Green DND-189). Format: cell-based. Conditions: 10 μM, 30 min, vs DMSO blank control. Here is the method: as §1
as §2, with “(2) The cells were inoculated into a low-attachment U-bottom 96-well plate, and when the diameter of the cell spheroids reached ~800 μm, the cell spheroids were used for antitumor evaluation.” left out
Two groups of HeLa cells grown on confocal glass-bottom culture dishes prepared in Test example 1 were incubated with 2 μM lysosomal green fluorescent probe (LysoSensor Green DND-189) in the dark for 30 min in a CO2 incubator, and then washed with PBS. […] The changes in the fluorescence brightness of LysoSensor Green in cells from the two groups were recorded.

The next series has as its system HeLa cells (autophagy). Description: Imaging of autophagic vacuoles and autophagosomes in HeLa cells (Cell-Tracker Green CMFDA). Format: cell-based. The note with it: 10 μM, 90 min. Here is the method:
as §1, §2
Two groups of HeLa cells grown on confocal glass-bottom culture dishes prepared in Test example 1 were firstly washed with PBS. Then one group was incubated in the dark for 90 min in complete medium with 10 μM of the compound synthesized in Example 1, and the other group was incubated in complete medium with an equal amount of DMSO as a blank control sample. Subsequently, the cells were incubated in DMEM with 5 μM green live-cell tracking probe (Cell-Tracker Green CMFDA) for 30 min. After PBS washing, the cells were placed in DMEM and observed under a laser scanning confocal microscope. The fluorescence distribution of Cell-Tracker Green in cells from the two groups was recorded.
After HeLa cells grown on confocal glass-bottom culture dish prepared in Test example 1 was washed with PBS, they were incubated in complete medium with 10 μM of the compound synthesized in Example 2 in the dark for 90 min, and then incubated in DMEM with 5 μM green live-cell tracking probe (Cell-Tracker Green CMFDA) in the dark for 30 min followed by PBS washing. The cells were placed in DMEM and observed under a laser scanning confocal microscope. The fluorescence distribution of Cell-Tracker Green in the cells was recorded.

In series [5] the test system is HeLa cells (fusion of mitochondria and lysosomes). Description: Fusion of mitochondria and lysosomes in HeLa cells (MitoTracker Green / LysoBrite NIR). The note with it: compound 10 μM in complete medium, ~5 h. Type of series: cell-based. Here is the method: as §1
as §2, with “(2) The cells were inoculated into a low-attachment U-bottom 96-well plate, and when the diameter of the cell spheroids reached ~800 μm, the cell spheroids were used for antitumor evaluation.” left out
After two groups of HeLa cells grown on confocal glass-bottom culture dishes prepared in Test example 1 were washed with PBS, both were incubated with 1 μM mitochondrial green fluorescent probe (MitoTracker Green) in the dark for 30 min, followed by 30 min incubation with 1 μM lysosomal deep-red probe (LysoBrite NIR). […] The fluorescence distribution of MitoTracker Green and LysoBrite NIR in cells from the two groups was recorded.

A further series relates to HEK293 cell spheroids. Description: Changes in growth of HEK293 cell spheroids. Type of series: cell-based. The note with it: 10 μM, 24 h. The method, then: as §1
as §2, with “evaluation. […]” for “evaluation.”

The subject of the next series is HeLa cell spheroids. Description: Changes in growth of HeLa cell spheroids. The note with it: 10 μM, 24 h. Type of series: cell-based. Here is the method: as §1, §2
After two groups of HEK293 cell spheroids and two groups of HeLa cell spheroids prepared in Test example 1 were photographed under a microscope, one group of HEK293 and HeLa cell spheroids was incubated in a complete medium containing 10 μM of the compound synthesized in Example 1 as an experimental administration group, and the other group of HEK293 and HeLa cell spheroids was incubated in a complete medium containing the same volume of DMSO as a blank control. After 24 h, photographs were taken again using the microscope to observe changes in morphology and size of the cell spheroids.

In a further series the target is bovine serum albumin (Bos taurus, UniProt P02769). Description: Binding constant with albumin (fluorescence quenching, double-logarithmic fitting). Here is the method: The compound synthesized in Example 1 was added at different concentrations (0 to 15 μM) to PBS containing bovine serum albumin, and then fluorescence spectra of bovine serum albumin were measured using a fluorescence spectrometer (280 nm EX).
Chain of bovine serum albumin (P02769 25-607): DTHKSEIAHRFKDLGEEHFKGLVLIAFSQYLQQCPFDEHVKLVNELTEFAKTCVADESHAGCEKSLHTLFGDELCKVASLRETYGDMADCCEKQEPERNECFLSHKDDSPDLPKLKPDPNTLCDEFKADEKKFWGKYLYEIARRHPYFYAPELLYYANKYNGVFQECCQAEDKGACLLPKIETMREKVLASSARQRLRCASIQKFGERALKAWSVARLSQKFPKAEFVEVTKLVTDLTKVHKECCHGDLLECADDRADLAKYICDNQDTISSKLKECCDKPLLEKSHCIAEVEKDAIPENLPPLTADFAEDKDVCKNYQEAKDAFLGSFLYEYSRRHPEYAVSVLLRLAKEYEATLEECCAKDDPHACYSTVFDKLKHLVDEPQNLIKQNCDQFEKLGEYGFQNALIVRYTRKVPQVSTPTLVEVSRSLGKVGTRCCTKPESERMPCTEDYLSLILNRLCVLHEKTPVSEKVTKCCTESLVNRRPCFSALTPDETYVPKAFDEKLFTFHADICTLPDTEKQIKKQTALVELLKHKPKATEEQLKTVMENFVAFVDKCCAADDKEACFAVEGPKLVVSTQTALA

As to `CCCCCCCC[n+]1ccc(/C=C/c2c[nH]c3ccc(OC)cc23)c2ccccc21.[I-]` [(E)-4-(2-(5-methoxy-1H-indol-3-yl)vinyl)-1-n-octylquinolinium iodide, reference compound], in the series on HeLa cells, the “way of entering cells” value is “enters cells mainly via free diffusion rather than active transport” and the “red fluorescence at 37 °C compared with 4 °C” value was “no obvious difference in fluorescence intensity”. In addition, in series [1], the “fluorescence intensity, cancer cells vs normal cells, complete medium” value was “no significant difference in fluorescence intensity between cancer cells and normal cells”; the “selectivity for cancer cells” value is reported as “non-selective for cancer cells”.

`CCCCCCCCCCCC[n+]1ccc(/C=C/c2c[nH]c3ccc(OC)cc23)c2ccccc21.[I-]` [Example 1, (E)-4-(2-(5-methoxy-1H-indol-3-yl)vinyl)-1-n-dodecylquinolinium iodide]: the “distribution of compound fluorescence in organelles” value in series [2] is “distributed in the two organelles, mitochondria and lysosomes”. In series [3], the “fluorescence of rhodamine 123” value is reported as “greatly weakened” and the mitochondrial membrane potential result was “decreases significantly”. Besides, in series [4], the “fluorescence of LysoSensor Green” value is reported as “greatly weakened” and the “lysosomal pH” value is listed as “increases significantly”. Further, in the series on HeLa cells (autophagy), the “autophagy activation / modulation” value is “can activate autophagy”; the “generation of vacuoles (autophagic vacuoles/vesicles and autophagosomes) in the cytoplasm” value was “a large number of vacuoles (autophagic vacuoles and autophagosomes) are generated”. Besides, in series [5], the “fusion of mitochondria and lysosomes / autophagic flux” value is “can prevent fusion of cellular mitochondria and lysosomes and block autophagic flux”; the “overlap of mitochondrial and lysosomal fluorescence” value is on record as “almost no overlap”. In the series with HeLa cells, the “way of entering cells” value is on record as “enters cells mainly via active transport” and the “red fluorescence at 37 °C compared with 4 °C” value is listed as “significantly stronger”. In the series on HEK293 cell spheroids, the “growth inhibition of normal HEK293 cell spheroids” value is “does not cause significant growth inhibition”. Further, the “size and shape of HEK293 cell spheroids” value in the series with HEK293 cell spheroids (vs blank control) was “do not change significantly compared with the blank control”. Besides, in the series with HeLa cell spheroids, the “cell debris near HeLa cell spheroids” value was “many cell debris appear near the cell spheroids”; the “growth of cancerous HeLa cell spheroids” value is “significantly inhibits and disrupts the growth”. In addition, the “size of HeLa cell spheroids” value with HeLa cell spheroids (vs blank control and before administration) was “much smaller than those in the blank control as well as than the cell spheroids before drug administration”. Further, the “selective killing effect on cancer cells” value in the series with HeLa cell spheroids (HeLa vs HEK293 cell spheroids) was “significant selective killing effect on cancer cells”. Moreover, the “fluorescence peak of bovine serum albumin” value on bovine serum albumin (PBS, compound 0 to 15 μM, 280 nm EX) is “gradually decreases”. Further, the affinity for albumin result on bovine serum albumin (bovine serum albumin in PBS) is “high affinity for albumin”. Also, the “binding constant with albumin” value at bovine serum albumin (bovine serum albumin in PBS, compound 0 to 15 μM, 280 nm EX, double-logarithmic fit) was 1.35×10^8. Besides, the “fluorescence intensity, cancer cells vs normal cells, serum-free” value in series [1] (DMEM (serum-free)) is “almost no difference in fluorescence intensity between cancer cells and normal cells”. In addition, in series [1], the “fluorescence intensity, cancer cells vs normal cells, complete medium” value is “the fluorescence intensity of cancer cells is significantly higher than the fluorescence intensity of normal cells” and the “selectivity for cancer cells” value is on record as “high selectivity for cancer cells”. Also, in [1] (serum-free medium), the “entry into cancer cells vs normal cells, serum-free” value is recorded as “no significant difference”.

For the compound `CCCCCCCCCCCC[n+]1ccc(/C=C/c2c[nH]c3ccccc23)c2ccccc21.[I-]` [Example 2, (E)-4-(2-(1H-indol-3-yl)vinyl)-1-n-dodecylquinolinium iodide], in [2], the “distribution of compound fluorescence in organelles” value is “distributed in the two organelles, mitochondria and lysosomes”. In the series with HeLa cells (autophagy), the “autophagy activation / modulation” value is “autophagy-modulating activity”; the “generation of vacuoles (autophagic vacuoles/vesicles and autophagosomes) in the cytoplasm” value is “a large number of vacuoles (autophagic vesicles and autophagosomes) are generated”.
